Data set [1] in a line: Uptake rates of active agents into hydrogel samples. Type of data set: physicochemical. The following applies: for time to reach the same concentration in the hydrogel as the uptake solution: 1 mm hydrogel samples, methylene blue 1 ppm, p-nitrophenol 0.4 wt. %. The protocol: Uptake solutions of methylene blue (1 ppm) and p-nitrophenol (0.4 wt. %) were prepared. […] The hydrogels were then carefully blotted of excess solution and were each transferred into a second beaker containing 30 ml of a 10 mM phosphate buffer solution with a pH of 6 to equilibrate.
The hydrogels were continuously agitated to ensure that the equilibrium state was reached. The uptake of p-nitrophenol and methylene blue was assumed to correspond to the amount that was released into the washing buffer solution. […] Methylene blue was similarly measured at 655 nm and the calibration curve was in the range of 0.0025 ppm to 3 ppm.

The test system of data set [2] is human skin. The following applies: both, in vivo.
Data set [3] deals with human skin. To be noted: 107 subjects. From the text: Subjects fulfilled specific inclusion criteria including not being pregnant or breastfeeding, being over 18 years old, having healthy skin, and not having used any dermatological or cosmetic preparation on the test area within 5 days before the beginning of the study.
Briefly, the tested hydrogels were applied under occlusion on the outer aspect of the upper arm for a defined time. The applications were repeated 9 times over a period of 3 consecutive weeks, a duration necessary for the possible induction of an immune response. The irritancy potential was evaluated and compared to the irritancy potential of the standard, SLS. After a two-week rest period with no treatment, the tested hydrogels were applied under occlusion to the induction site and to a virgin site on the volar side of the underarm for a defined period of time to trigger a possible immune response.
The final pH of the hydrogels was adjusted to about 5.5.
Possible skin reactions to the products were scored according to the scale reproduced in Table 5 above.
In summary, the test product is considered to have a low sensitization potential if none of the subjects reported a grade 2 or higher dermal response on days 38 to 40 and no more than two subjects reported a grade 1 dermal response on days 38 to 40. A moderate sensitization potential is assigned if a maximum of 2 subjects reported a grade 2 or higher dermal response on days 38 to 40 and a maximum of 4 subjects reported a grade 1 response on days 38 to 40. A high sensitization potential is assigned if 3 or more subjects reported a grade 2 or higher dermal response on days 38 to 40 and 5 or more subjects reported a grade 1 response on days 38 to 40.
The cumulative irritancy score represents the sum of the irritancy scores assigned on days 3, 5, 8, 10, 12, 15, 17, 19, and 22. […] An irritancy score was assigned to each induction and virgin site on days 36, 38, 39 and 40, and their respective scores were added up separately to produce the cumulative irritancy score presented in the fourth column of Table 10. The fifth and sixth columns indicate the number of subjects that experienced a grade 2 or greater response on each of days 38, 39 and 40, and the number of subjects that experienced a grade 1 response on each of days 38, 39, and 40.

Structures are written as SMILES.

Consider `CN(C)c1ccc2nc3ccc(=[N+](C)C)cc-3sc2c1` [methylene blue], for which the “time to reach the same concentration in the hydrogel as the uptake solution” value in data set [1] is “less than 1.50 minutes”. Also, in data set [1] (within an hour), the “concentration in hydrogel relative to the initial uptake solution” value is recorded as 6 times.
With `CCCCCCCCCCCCOS(=O)(=O)[O-].[Na+]` [Positive Control, sodium lauryl sulphate], in data set [2], the “C: Glazing with peeling & cracking, number of subjects” value stood at 0; the “D: Glazing with fissures, number of subjects” value stood at 0; the “E: Film of dried serious exudate covering all or part of the patch site, number of subjects” value stood at 0; the “F: Small petechial erosions and/or scabs, number of subjects” value is on record as 0. Moreover, in data set [2], the Maximum single score is 1, the Maximum sum was 3, the Minimum single score was 0 and the Minimum sum came out at 0. In data set [2], the “N (reacting subjects)” value came out at 19; the “Slight itch, number of subjects” value came out at 0; the “Sum of scores for dermal reactions” value is reported as 23.00. For the same compound, in data set [3] (22-day induction phase), the “Cumulative Irritancy Score” value turned out to be 21, the “Number of reacting subjects” value is on record as 11 and the “Type of Reactivity” value is given as “Minimal erythema”. In addition, the “subjects with slight glazed appearance and/or marked glazing” value in data set [3] (induction phase) worked out at 20.
For the compound `O=[N+]([O-])c1ccc(O)cc1` [p-nitrophenol], the “time to reach the same concentration in the hydrogel as the uptake solution” value in data set [1] is “about 15 minutes”.

Source of the values: patent US20050214376A1, “Hydrogel-containing medical articles and methods of using and making the same” (priority 2003, published 2005).
